Test results as given in patent US20180207228A1, “PEPTIDE COMBINATIONS AND USES THEREOF FOR TREATING GRASS ALLERGY” (ALK-Abelló A/S, priority 2015, published 2018).
“Also recorded” adds a separate entry of the source. Where no end group is shown, it is not given here.

Test system: grass pollen allergic donor derived TCL-03 lines
Experiment: Extended cross-reactivity study, proliferation on TCL03 DK1+DK2 (Study XR2), scoring
Assay type: cell-based, human
Conditions: study XR2; homologue from Cyn d; score 0 to 7

Substance | Cross-reactivity score, Cyn d
TDDNEEPIAPYHFDLSGHAF-OH [peptide 204] | 1.5
WGAIWRIDTPDKLTGPFTVR-OH [peptide 211] | 0.5

Same assay, conditions: study XR2; homologue from Dac g; score 0 to 7

Substance | Cross-reactivity score, Dac g
AYESYKFIPALEAAVKQAYA-OH [peptide 285] | 6
STGGAYESYKFIPALEAAVK-OH [compound 71] | 5
TDDNEEPIAPYHFDLSGHAF-OH [peptide 204] | 7
WGAIWRIDTPDKLTGPFTVR-OH [peptide 211] | 5

Same assay, conditions: study XR2; homologue from Fes p; score 0 to 7

Substance | Cross-reactivity score, Fes p
AYESYKFIPALEAAVKQAYA-OH [peptide 285] | 6
STGGAYESYKFIPALEAAVK-OH [compound 71] | 5
TDDNEEPIAPYHFDLSGHAF-OH [peptide 204] | 7
WGAIWRIDTPDKLTGPFTVR-OH [peptide 211] | 4

Same assay, conditions: study XR2; homologue from Lol p; score 0 to 7

Substance | Cross-reactivity score, Lol p
AYESYKFIPALEAAVKQAYA-OH [peptide 285] | 6
STGGAYESYKFIPALEAAVK-OH [compound 71] | 5
TDDNEEPIAPYHFDLSGHAF-OH [peptide 204] | 7
WGAIWRIDTPDKLTGPFTVR-OH [peptide 211] | 4

Same assay, conditions: study XR2; homologue from Pas n; score 0 to 7

Substance | Cross-reactivity score, Pas n
TDDNEEPIAPYHFDLSGHAF-OH [peptide 204] | 1
WGAIWRIDTPDKLTGPFTVR-OH [peptide 211] | 1

Same assay, conditions: study XR2; homologue from Pha a; score 0 to 7

Substance | Cross-reactivity score, Pha a
AYESYKFIPALEAAVKQAYA-OH [peptide 285] | 6
STGGAYESYKFIPALEAAVK-OH [compound 71] | 5
TDDNEEPIAPYHFDLSGHAF-OH [peptide 204] | 7
WGAIWRIDTPDKLTGPFTVR-OH [peptide 211] | 7

Same assay, conditions: study XR2; homologue from Poa p; score 0 to 7

Substance | Cross-reactivity score, Poa p
AYESYKFIPALEAAVKQAYA-OH [peptide 285] | 7
STGGAYESYKFIPALEAAVK-OH [compound 71] | 4
TDDNEEPIAPYHFDLSGHAF-OH [peptide 204] | 1.5
WGAIWRIDTPDKLTGPFTVR-OH [peptide 211] | 3

Same assay, conditions: study XR2; homologue from Sor h; score 0 to 7

Substance | Cross-reactivity score, Sor h
TDDNEEPIAPYHFDLSGHAF-OH [peptide 204] | 2
WGAIWRIDTPDKLTGPFTVR-OH [peptide 211] | 0.5

Same assay, conditions: study XR2; scores of all species added

Substance | Cross-reactivity sum
AYESYKFIPALEAAVKQAYA-OH [peptide 285] | 31
STGGAYESYKFIPALEAAVK-OH [compound 71] | 24
TDDNEEPIAPYHFDLSGHAF-OH [peptide 204] | 34
WGAIWRIDTPDKLTGPFTVR-OH [peptide 211] | 25

Same assay, conditions: study XR2; sum divided by the number of species measured

Substance | Cross-reactivity/species
AYESYKFIPALEAAVKQAYA-OH [peptide 285] | 6.2
STGGAYESYKFIPALEAAVK-OH [compound 71] | 4.8
TDDNEEPIAPYHFDLSGHAF-OH [peptide 204] | 4.25
WGAIWRIDTPDKLTGPFTVR-OH [peptide 211] | 3.12

Test system: grass allergic donor derived T cell lines (TCL-02 DK-2)
Experiment: Cross-reactivity of homologue peptides, proliferation on TCL02-DK2 (Study XR1)
Assay type: cell-based, human
Conditions: 2 μg/ml, TCL02-DK2, 21 donors
Procedure: To measure the experimental cross-reactivity the proliferation assay of Example 3 was carried out on 21 grass allergic donors (TCL02-DK2). […] Cross-reactivity to Phleum pratense peptides with either close (Lolium perenne (Lol p)) or distant (Phalaris aquatica (Pha a), Cynodon dactylon (Cyn d)) species was experimentally investigated.
For analysing the cross-reactivity data, it was investigated if a donor responds to both native and homologue peptide, XY correlation plots were made where the donor responses to native peptides were plotted versus the donor responses to homologues. […] If less than five donors were responding to the parent peptides, then the data was considered to be in-conclusive, and were thus labelled with “-”. For some of the peptides the analysis was further supported by performing a Spearman r-Non Parametric test (data not shown).
Further the magnitude of T cell response from a parent peptide as defined herein and homologue response were plotted in a XY plot by using GraphPad Prism 6.
To measure the experimental cross-reactivity, the proliferation assay of Example 3 was carried out on 21 grass pollen allergic donors (TCL02-DK2, Study XR1) and 20 grass pollen allergic donors (TCL03−DK1+DK2, Study XR2). […] In Study XR1, Cross-reactivity to Phleum pratense peptides with either close (Lolium perenne-Lol p) or distant ([…]-Pha a, Cynodon dactylon-Cyn d) species was experimentally investigated. In Study XR1, 67 homologue peptides corresponding to 41 native Phleum pratense peptides were investigated together with the 41 Phleum pratense peptides at a concentration of 2 μg/ml. Similarly, study XR2 was carried out on 20 grass pollen allergic donors where donor derived TCL-03 lines were used to investigate Phleum pratense cross-reactivity to Poa pratensis (Poa p), Dactylis glomerata (Dac g), Festuca pratensis (Fes p), Paspalum notatum (Pas n), Sorghum halepense (Sor h), Lolium perenne (Lol p), Phalaris aquatica (Pha a) and Cynodon dactylon (Cyn d).

Substance | experimental cross-reactivity
DKYRTFVATFGAASNKAFAE-OH [peptide 231] | showed cross-reactivity
PANDKFTVFEAAFNNAIKAS-OH [compound 70] | showed cross-reactivity; also recorded: good cross reactivity
STGGAYESYKFIPALEAAVK-OH [compound 71] | showed cross-reactivity; also recorded: very good cross-reactivity
TDDNEEPIAPYHFDLSGHAF-OH [peptide 204] | showed cross-reactivity; also recorded: good cross-reactivity
VATLSEALRIIAGTLEVHAV-OH [compound 67] | showed cross-reactivity

Test system: release of IFN-γ upon T cell activation
Experiment: Fluorospot assay, IFN-γ release (DK1-TCL01, US1-TCL01)
Assay type: cell-based, human
Conditions: head prints TCL-02 DK1; 17 TCL-01 DK1 lines
How it was run: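 Grass-allergic donors' CD8-depleted PBMCs were expanded 14 days with natural grass allergens plus IL-2 to give TCL01 lines. These were incubated 20 h at 37° C with single peptides or peptide mixes at 2 μg/ml, and spot-forming cells were counted. Hit: SI≥2, p≤0.05, Poisson ≤0.05, ≥20 SFC/10^6 cells.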

Substance | IFN-gamma % donor coverage (TCL-02 DK1) [%]
PANDKFTVFEAAFNNAIKAS-OH [compound 70] | 0.00
STGGAYESYKFIPALEAAVK-OH [compound 71] | 0.00
VATLSEALRIIAGTLEVHAV-OH [compound 67] | 4.00
